From ChEMBL document CHEMBL1201862, “PubChem BioAssay data set” (2004)
Calls of active or inactive are those of the source. Cut-off read from the data, not from the text of the source, for most assays here: actives have a measured EC50 and inactives only a lower limit.

Tests used:
[1] = biological target: T1, Alkaline phosphatase, tissue-nonspecific isozyme (Homo sapiens, UniProt P05186)
T1 sequence (P05186 whole entry): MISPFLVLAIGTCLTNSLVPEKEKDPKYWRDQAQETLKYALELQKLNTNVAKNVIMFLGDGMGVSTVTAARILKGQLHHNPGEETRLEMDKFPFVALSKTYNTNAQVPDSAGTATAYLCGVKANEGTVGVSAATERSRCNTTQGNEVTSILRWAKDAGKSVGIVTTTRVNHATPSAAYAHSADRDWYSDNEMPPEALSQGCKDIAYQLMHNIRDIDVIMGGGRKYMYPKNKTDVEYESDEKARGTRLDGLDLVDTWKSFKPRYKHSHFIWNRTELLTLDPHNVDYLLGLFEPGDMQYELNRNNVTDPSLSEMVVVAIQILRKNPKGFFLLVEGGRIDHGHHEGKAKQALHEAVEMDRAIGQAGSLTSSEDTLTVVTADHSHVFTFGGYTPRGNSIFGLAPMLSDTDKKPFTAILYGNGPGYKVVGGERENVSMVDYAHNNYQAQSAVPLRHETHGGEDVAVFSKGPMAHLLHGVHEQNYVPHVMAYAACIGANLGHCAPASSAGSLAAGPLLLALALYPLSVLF

Streptococcus = assay: GAS UMAA2166 growth inhibition – luminescence, BacTiterGlo, counter-screen for streptokinase expression inhibitor project, dose response (AID 1915); assay type: functional, organism-based;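 note: potency for reduction of bacterial viability or growth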
INS1 = assay: INS-1E survival protection against cytokine death – cell-based, luminescence, retest, dose response (AID 449756); assay type: functional; conditions: Rattus norvegicus;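 note: cell death triggered by IL-1 beta plus TNF-alpha plus IFN-gamma mixture; protective hits raise ATP signal compared with cytokine alone wells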
[2] = NIH3T3 cell viability loss – ATP luminescence, mouse fibroblasts, counter-screen, dose response (AID 2010); assay type: functional, cell-based;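 note: cells exposed to compound for about 90 hours before reading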
Streptokinase A = biological target: T2, Streptokinase A (Streptococcus pyogenes serotype M1, UniProt P10520); assay: viability-normalized secreted streptokinase activity reduction – plasminogen activation absorbance, OD405, dose response (AID 1914); assay type: functional, Streptococcus pyogenes M1 GAS;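 note: secreted streptokinase activity via plasminogen activation per viability signal from cell pellet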
T2 sequence (P10520 whole entry): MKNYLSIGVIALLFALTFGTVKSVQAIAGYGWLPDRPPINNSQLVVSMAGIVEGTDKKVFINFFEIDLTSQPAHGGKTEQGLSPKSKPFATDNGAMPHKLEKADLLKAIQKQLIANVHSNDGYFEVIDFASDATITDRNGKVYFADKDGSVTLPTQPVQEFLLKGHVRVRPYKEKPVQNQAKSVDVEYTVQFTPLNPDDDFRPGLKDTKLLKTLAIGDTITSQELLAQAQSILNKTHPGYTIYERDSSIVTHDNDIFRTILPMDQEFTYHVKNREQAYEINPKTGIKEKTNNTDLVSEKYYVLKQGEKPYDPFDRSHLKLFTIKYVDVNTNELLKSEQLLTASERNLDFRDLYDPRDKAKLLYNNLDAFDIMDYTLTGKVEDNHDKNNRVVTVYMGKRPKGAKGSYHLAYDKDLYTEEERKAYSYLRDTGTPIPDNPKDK

[3] = fluconazole-exposed Candida albicans growth modulators – fluorescence, retest, confirmation (AID 2467); assay type: functional, cell-based
[4] = Trypanosoma cruzi growth suppression in host cells – NIH3T3 host cells, beta-gal luminescence, confirmation (AID 2044); assay type: functional, cell-based;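 note: intracellular parasites grown in NIH/3T3 mouse fibroblasts as host cells; luminescent beta-galactosidase reporter signal from transgenic T. cruzi replicating inside host cells; inhibitors lower the luminescence signal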
cells = assay type: functional, cell-based
[5] = NIH-3T3 fibroblast cytotoxicity, dose response, cytotoxicity control, cell-based, fluorescence, Alamar Blue, secondary assay (AID 2327); assay type: functional;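 note: NIH-3T3 mouse fibroblasts cultured with fluconazole at 8 µg/mL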
[6] = biological target: G-protein coupled receptor 55 (Homo sapiens, UniProt Q9Y2T6); assay: selective activators of receptor GPR55 – imaging, U2OS cells, beta-arrestin-GFP redistribution, primary screen (AID 1961); assay type: functional
[7] = alpha-synuclein stem-loop translation blockers – luminescence, H4 neuroglioblastoma cells, dose confirmation, confirmation (AID 2454); assay type: functional, cell-based;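 note: H4 neuroglioblastoma cells carrying an alpha-synuclein 5'UTR luciferase reporter; potency for inhibition of the luciferase signal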
[8] = biological target: T3, Serine/threonine-protein phosphatase (Candida dubliniensis (strain CD36 / CBS 7987 / NCPF 3949 / NRRLY-17841) (Yeast), UniProt B9W6M3); assay: blockers of CaCl2-induced CDRE-lacZ signaling – S. cerevisiae, luminescence, secondary, dose response (AID 2388); assay type: functional, cell-based;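 note: yeast reporter cells carrying a calcineurin-responsive lacZ construct stimulated with calcium chloride; luminescent beta-galactosidase reporter signal in whole cells rather than isolated phosphatase activity; potency for inhibition where a drop in reporter signal means calcineurin blockade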
T3 sequence (B9W6M3 whole entry): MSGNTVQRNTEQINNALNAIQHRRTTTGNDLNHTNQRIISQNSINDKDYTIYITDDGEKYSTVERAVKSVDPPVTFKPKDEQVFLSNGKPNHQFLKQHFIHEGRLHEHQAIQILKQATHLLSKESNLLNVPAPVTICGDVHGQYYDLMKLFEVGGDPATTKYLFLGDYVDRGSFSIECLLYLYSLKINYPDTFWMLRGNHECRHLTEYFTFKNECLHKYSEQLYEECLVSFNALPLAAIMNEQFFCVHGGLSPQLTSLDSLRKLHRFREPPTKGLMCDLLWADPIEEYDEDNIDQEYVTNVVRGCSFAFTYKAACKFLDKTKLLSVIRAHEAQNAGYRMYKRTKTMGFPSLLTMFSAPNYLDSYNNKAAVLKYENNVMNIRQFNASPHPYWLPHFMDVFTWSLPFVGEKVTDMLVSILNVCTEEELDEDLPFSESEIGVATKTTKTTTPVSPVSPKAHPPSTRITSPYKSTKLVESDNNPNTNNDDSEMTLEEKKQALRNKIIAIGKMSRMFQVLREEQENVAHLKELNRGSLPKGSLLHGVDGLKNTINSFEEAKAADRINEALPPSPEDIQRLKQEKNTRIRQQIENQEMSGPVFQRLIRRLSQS

[9] = alpha-synuclein stem-loop luciferase translation blockers – H4 neuroglioma cells, luminescence, confirmation (AID 1988); assay type: functional, cell-based
[10] = tested on: Streptococcus sp. 'group A'; assay: Streptococcus pyogenes SK(-)GAS viability under kanamycin – luminescence, BacTiterGlo, confirmation, counter-screen for streptokinase expression inhibitor project, dose response (AID 1900); assay type: functional, organism-based
[11] = biological target: ATP-dependent molecular chaperone HSP82 (Candida albicans (strain WO-1) (Yeast), UniProt C4YTQ8); assay: steroid-induced GRE reporter decrease in yeast – S. cerevisiae, luminescence, Hsp90 inhibitor project, dose response (AID 2400); assay type: functional, cell-based;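 note: beta-galactosidase luminescence from glucocorticoid response element reporter as proxy for Hsp90 function; inhibitor potency where signal loss means Hsp90 inhibition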
ATP-dependent molecular chaperone HSP82, sequence (C4YTQ8 whole entry, the tested form may be a part): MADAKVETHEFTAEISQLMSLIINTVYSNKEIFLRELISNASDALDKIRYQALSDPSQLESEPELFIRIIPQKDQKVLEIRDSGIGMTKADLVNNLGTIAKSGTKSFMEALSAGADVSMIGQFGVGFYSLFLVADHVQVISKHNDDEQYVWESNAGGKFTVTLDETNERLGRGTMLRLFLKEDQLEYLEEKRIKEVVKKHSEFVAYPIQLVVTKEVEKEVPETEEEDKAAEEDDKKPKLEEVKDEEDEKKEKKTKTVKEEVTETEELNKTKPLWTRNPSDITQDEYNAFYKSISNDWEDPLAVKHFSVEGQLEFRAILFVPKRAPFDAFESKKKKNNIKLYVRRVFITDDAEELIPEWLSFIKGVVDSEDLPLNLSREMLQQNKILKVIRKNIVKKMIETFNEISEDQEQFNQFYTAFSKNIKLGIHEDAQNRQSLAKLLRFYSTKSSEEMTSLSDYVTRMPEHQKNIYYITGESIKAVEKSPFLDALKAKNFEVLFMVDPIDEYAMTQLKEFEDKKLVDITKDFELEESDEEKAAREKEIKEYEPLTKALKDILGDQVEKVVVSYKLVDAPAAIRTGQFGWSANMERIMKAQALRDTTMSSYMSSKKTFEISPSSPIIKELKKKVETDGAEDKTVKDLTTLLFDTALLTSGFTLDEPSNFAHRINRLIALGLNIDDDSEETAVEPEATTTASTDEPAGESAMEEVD

[12] = luciferase reporter signal reduction – luminescence, H4-C neuroglioblastoma cells, dose response (AID 2458); assay type: functional, cell-based;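 note: H4 neuroglioblastoma cells stably carrying a luciferase reporter gene fusion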
[13] = biological target: Peroxisome proliferator-activated receptor gamma/Nuclear receptor coactivator 1 (Homo sapiens, UniProt P37231); assay type: functional;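 note: agonist potency as compounds enhance coactivator SRC-1 recruitment to PPARgamma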
Peroxisome proliferator-activated receptor gamma/Nuclear receptor coactivator 1, sequence (P37231 whole entry): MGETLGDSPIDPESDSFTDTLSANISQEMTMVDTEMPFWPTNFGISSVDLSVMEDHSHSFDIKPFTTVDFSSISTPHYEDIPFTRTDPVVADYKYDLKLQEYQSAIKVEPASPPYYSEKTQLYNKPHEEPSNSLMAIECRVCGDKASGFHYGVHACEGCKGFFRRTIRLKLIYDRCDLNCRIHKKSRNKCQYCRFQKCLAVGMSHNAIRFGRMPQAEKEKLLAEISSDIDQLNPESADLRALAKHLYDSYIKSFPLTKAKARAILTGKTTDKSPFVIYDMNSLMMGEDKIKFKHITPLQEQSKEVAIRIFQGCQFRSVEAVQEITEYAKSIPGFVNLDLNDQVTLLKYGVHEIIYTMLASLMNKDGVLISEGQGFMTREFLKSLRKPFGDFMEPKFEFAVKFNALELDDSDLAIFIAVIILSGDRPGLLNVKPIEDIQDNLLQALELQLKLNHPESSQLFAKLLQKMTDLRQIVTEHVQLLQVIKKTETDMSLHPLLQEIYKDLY
Peroxisome proliferator-activated receptor gamma/Nuclear receptor coactivator 1, sequence (Q15788 whole entry, further chain): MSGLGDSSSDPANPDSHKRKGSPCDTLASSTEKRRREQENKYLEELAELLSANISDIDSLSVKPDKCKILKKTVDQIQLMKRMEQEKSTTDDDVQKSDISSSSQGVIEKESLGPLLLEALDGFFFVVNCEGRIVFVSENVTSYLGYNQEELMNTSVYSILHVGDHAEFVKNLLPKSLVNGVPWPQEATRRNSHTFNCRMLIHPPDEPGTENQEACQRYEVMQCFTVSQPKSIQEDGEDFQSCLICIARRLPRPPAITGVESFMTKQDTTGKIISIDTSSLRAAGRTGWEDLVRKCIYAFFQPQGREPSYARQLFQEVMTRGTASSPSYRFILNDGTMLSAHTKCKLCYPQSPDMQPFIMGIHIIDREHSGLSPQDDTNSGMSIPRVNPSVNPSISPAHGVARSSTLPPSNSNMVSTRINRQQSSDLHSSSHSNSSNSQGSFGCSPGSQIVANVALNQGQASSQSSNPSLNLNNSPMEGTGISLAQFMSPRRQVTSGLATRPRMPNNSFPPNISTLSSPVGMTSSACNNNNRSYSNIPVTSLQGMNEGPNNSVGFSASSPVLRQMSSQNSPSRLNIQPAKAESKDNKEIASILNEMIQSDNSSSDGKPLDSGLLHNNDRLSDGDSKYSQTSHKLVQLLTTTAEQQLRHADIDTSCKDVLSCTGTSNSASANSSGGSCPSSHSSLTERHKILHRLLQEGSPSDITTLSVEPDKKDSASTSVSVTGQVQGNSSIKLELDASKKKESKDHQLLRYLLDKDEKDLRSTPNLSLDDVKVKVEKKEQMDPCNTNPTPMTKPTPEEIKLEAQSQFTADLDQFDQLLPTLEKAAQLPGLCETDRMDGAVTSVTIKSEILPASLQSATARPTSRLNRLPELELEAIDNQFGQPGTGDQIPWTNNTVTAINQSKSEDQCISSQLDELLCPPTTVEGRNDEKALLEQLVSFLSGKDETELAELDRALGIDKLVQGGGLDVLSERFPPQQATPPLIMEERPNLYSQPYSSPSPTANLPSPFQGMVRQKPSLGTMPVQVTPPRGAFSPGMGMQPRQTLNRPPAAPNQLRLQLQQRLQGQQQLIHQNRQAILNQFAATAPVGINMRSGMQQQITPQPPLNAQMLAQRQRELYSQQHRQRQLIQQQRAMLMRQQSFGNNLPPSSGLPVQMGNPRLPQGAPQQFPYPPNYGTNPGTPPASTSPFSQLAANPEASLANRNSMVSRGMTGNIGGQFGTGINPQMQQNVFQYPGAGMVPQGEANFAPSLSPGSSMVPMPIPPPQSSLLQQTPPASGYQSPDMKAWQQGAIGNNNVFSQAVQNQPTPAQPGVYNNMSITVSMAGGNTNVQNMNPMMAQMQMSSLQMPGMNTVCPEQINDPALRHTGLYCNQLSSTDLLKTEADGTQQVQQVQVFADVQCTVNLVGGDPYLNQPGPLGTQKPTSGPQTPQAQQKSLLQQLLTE

[14] = biological target: ADP-ribosylation factor GTPase-activating protein 1 (Rattus norvegicus, UniProt Q62848); assay: Fluorescence polarization-based biochemical high throughput dose response screening assay to identify inhibitors of ADP-ribosylation factor GTPase activating protein 1 (ARFGAP1).; assay type: functional
ADP-ribosylation factor GTPase-activating protein 1, sequence (Q62848 whole entry): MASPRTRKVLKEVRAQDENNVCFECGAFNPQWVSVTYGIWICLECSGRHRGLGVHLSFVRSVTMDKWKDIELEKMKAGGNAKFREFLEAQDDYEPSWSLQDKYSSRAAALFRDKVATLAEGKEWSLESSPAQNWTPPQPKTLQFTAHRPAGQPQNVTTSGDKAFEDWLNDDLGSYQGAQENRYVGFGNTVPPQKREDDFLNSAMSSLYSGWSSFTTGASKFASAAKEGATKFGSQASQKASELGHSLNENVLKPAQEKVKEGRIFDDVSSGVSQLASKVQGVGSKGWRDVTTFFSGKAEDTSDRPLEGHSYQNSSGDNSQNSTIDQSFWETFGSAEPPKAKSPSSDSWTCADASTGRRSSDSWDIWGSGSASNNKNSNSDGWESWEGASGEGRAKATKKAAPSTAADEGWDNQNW

[15] = biological target: Peroxisome proliferator-activated receptor gamma/Nuclear receptor coactivator 2 (Homo sapiens, UniProt P37231); assay type: functional;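 note: agonist potency for raising coactivator recruitment to the receptor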
Peroxisome proliferator-activated receptor gamma/Nuclear receptor coactivator 2, sequence (P37231 whole entry): as the sequence (P37231 whole entry) above
Peroxisome proliferator-activated receptor gamma/Nuclear receptor coactivator 2, sequence (Q15596 whole entry, further chain): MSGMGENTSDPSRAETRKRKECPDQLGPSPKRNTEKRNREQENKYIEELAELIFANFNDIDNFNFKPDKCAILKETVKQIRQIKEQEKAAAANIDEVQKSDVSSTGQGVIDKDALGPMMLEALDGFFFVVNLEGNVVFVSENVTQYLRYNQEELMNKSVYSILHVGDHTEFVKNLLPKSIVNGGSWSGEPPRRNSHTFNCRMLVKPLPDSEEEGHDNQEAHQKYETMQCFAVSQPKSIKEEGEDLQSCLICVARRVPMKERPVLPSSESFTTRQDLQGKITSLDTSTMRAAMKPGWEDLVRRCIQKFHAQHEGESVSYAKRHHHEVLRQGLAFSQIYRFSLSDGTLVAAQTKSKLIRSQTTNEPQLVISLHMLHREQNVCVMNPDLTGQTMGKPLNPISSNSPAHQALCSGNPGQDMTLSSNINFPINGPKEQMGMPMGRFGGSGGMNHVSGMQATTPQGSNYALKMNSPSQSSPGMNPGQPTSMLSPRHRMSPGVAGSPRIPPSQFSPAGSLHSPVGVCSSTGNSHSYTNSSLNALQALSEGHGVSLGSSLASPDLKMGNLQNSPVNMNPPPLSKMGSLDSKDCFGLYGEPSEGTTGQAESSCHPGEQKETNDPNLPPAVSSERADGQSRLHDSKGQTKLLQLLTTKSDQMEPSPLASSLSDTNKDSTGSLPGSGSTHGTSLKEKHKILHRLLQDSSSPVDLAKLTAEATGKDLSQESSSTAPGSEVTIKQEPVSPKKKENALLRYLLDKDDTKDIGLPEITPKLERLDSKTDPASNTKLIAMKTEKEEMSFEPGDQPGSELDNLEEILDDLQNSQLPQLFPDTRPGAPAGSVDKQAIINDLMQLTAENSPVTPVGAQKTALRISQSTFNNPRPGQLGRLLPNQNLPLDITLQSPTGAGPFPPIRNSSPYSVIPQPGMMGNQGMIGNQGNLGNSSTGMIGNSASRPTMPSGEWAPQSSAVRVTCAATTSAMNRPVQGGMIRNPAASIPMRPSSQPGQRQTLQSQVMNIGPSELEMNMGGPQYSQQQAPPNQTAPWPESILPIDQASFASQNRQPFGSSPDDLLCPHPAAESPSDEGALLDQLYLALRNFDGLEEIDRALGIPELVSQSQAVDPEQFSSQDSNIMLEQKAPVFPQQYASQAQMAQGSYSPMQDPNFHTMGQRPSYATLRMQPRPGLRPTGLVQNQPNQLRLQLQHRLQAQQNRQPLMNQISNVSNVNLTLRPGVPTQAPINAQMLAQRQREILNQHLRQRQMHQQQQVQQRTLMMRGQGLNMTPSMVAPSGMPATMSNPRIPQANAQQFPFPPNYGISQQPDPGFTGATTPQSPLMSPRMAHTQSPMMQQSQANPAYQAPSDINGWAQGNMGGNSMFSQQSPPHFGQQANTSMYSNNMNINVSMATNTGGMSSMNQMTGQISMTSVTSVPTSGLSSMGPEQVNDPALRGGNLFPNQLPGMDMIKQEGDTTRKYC

[16] = biological target: Peroxisome proliferator-activated receptor gamma/Nuclear receptor coactivator 3 (Homo sapiens, UniProt P37231); assay type: functional;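 note: agonist potency for raising coactivator recruitment to the receptor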
[17] = HIV-1 AD8 envelope cell-cell fusion blockers – cherry-pick, dose response (AID 652062); assay type: functional, cell-based;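 note: luciferase signal from cell-cell fusion driven by HIV-1 clade B AD8 Env; potency is for inhibitors of fusion seen as a drop in luminescence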
[18] = Luminescence-based counterscreen assay for KLF5 inhibitors: dose response cell-based high throughput screening assay to identify cytotoxic compounds using the IEC-6 intestinal epithelial cell line. [Related pubchem assays: 1700 (Primary screen.), 1834 (Confirmation screen.), 1858 (Summary AID.), 1905 (Counterscreen.)]; assay type: functional
[19] = biological target: T4, Heat shock factor protein 1 (Mus musculus, UniProt P38532); assay: decrease of HSF1-responsive luciferase luminescence – cell-based, NIH3T3, dose retest, confirmation (AID 2382); assay type: functional;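 note: NIH3T3 fibroblasts with HSF1-driven luciferase reporter stressed by proteasome inhibitor MG132; luminescence from HSF1-driven luciferase expression after 8 hours of MG132 stress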
T4 sequence (P38532 whole entry): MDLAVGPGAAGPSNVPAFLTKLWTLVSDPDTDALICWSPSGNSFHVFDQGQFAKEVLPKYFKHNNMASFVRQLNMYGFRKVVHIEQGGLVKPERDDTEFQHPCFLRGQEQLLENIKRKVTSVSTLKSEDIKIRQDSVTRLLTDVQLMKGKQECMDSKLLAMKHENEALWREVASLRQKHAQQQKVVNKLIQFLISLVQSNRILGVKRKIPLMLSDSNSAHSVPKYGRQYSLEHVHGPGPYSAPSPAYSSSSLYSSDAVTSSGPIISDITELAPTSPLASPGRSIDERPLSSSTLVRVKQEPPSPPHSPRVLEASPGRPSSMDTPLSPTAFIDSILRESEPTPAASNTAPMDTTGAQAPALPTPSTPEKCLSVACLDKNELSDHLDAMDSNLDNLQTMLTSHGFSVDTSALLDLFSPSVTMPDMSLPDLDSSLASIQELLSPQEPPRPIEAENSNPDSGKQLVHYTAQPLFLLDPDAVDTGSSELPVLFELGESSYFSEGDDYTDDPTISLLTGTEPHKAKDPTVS

[20] = blockers of HIV-1 envelope-mediated cell-cell fusion – cherry-pick, dose response (AID 652057); assay type: functional, cell-based
[21] = off-target signal loss in HeLa-CEM21 co-culture – HeLa F-luc CTL cells, cherry-picked, counter-screen for HIV-1 Env fusion inhibitor project, dose response (AID 652040); assay type: functional, cell-based;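 note: potency for signal decrease marking cytotoxic or nonspecific inhibition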
[22] = luciferase reporter signal suppression in cells – H4 neuroglioma cells, luminescence, dose response (AID 1990); assay type: functional, cell-based
[23] = biological target: T5, Microphthalmia-associated transcription factor (Homo sapiens, UniProt O75030); assay: reducers of TRPM1 reporter luminescence, concentration series – cell-based, SK-MEL-5, cherry-picked, set 3, MITF inhibitor project, dose response (AID 493073); assay type: functional;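 note: SK-MEL-5 melanoma cells with luciferase driven by the MITF target TRPM1 promoter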
T5 sequence (O75030 whole entry): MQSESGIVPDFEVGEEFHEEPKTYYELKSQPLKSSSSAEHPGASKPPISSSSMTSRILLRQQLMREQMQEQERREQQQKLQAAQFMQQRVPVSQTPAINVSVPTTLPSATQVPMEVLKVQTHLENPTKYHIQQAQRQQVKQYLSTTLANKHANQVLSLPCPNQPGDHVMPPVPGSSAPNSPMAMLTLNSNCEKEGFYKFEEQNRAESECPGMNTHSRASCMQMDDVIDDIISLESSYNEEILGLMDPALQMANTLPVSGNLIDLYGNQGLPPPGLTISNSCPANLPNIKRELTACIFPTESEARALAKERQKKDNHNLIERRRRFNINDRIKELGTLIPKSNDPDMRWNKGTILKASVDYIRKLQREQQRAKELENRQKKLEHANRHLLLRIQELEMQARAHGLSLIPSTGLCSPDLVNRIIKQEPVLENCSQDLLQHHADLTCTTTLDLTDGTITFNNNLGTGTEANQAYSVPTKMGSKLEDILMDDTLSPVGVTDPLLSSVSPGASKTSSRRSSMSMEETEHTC

[24] = Luminescence Cell-Based Dose Response HTS to Identify Inhibitors of 5'UTR Stem-Loop Driven Prion Protein mRNA Translation in H4 Neuroglioblastoma Cells. [Related pubchem assays: 1827 (Project Summary), 1813 (Primary HTS)]; assay type: functional
[25] = blockers of HIV-1 ZM109 envelope-driven cell-cell fusion – HeLa effector, CEM target cells, luciferase, cherry-pick, dose response (AID 652058); assay type: functional, cell-based;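 note: luciferase signal from HIV-1 Env mediated cell-cell fusion of effector and target cells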
H9c2 = assay: cells; assay type: functional, cell-based; conditions: Rattus norvegicus, H9c2, Myocardium;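 note: confirmatory concentration-response retest of ultra-high-throughput screening hits for modulation of myocardial damage; cell death induced by hydrogen peroxide oxidative stress; compound pretreatment for 60 min then peroxide exposure for 2 h; potency is for protecting the cells against peroxide damage rather than for killing them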
[26] = A Cell Based Secondary Assay To Explore Cytotoxicity of Compounds that Sensitize Mycobacterium Tuberculosis to Beta-Lactam Antibiotics.; assay type: functional

Compound: CCC(C)N1CC(=O)C(c2nc3ccccc3[nH]2)=C1N (configuration not stated)
- EC50 [1]: 98.9 µM (not active)

Compound: CC1CCN(Cc2c(C(=O)N/N=C/c3cc(Br)ccc3O)nnn2-c2nonc2N)CC1
- EC50 (Streptococcus): 8.29 µM (active)
- AC50 (INS1): 0.365 µM (active)
- EC50 [2]: 5.24 µM (active)
- EC50 (Streptokinase A): 40.3 µM (inconclusive)
- EC50 [3]: 0.622 µM (active)
- EC50 [4]: 0.556 µM (active)
- EC50 (cells): 0.982 µM (active)
- EC50 [5]: 35.2 µM (inconclusive)
- EC50 [6]: 1.63 µM (active)
- EC50 [7]: > 12 µM (not active)
- EC50 [8]: > 180 µM (inactive)
- EC50 [9]: < 0.1 µM (active)
- EC50 [10]: 4.79 µM (active)
- EC50 [11]: > 160 µM (inactive)
- EC50 [12]: 1.79 µM (active)

Compound: COc1ccccc1CNC(=O)CSc1nc(N)c(C#N)c(-c2cccs2)c1C#N
- EC50 [13]: > 79.4 µM (not active)
- IC50 [14]: 43.2 µM (inactive)
- EC50 [15]: 67.6 µM (not active)
- EC50 [16]: > 79.4 µM (not active)

Compound: O=C(NC1=NCCS1)C1COc2ccccc2O1 (configuration not stated)
- AC50 [17]: 3.6 µM (active)
- IC50 [18]: > 39.8 µM (not active)
- EC50 [19]: 8.01 µM (active)
- AC50 [20]: 1.62 µM (active)
- AC50 [21]: 3.15 µM (active)
- EC50 [9]: 0.149 µM (active)
- EC50 [22]: 3.37 µM (active)
- AC50 [23]: 1.7 µM (active)
- EC50 [24]: > 60 µM (not active)
- AC50 [25]: 13.7 µM (active)

Compound: Nc1c(C(=O)NC2CC2)c2nc3ccccc3nc2n1-c1ccc2c(c1)OCO2
- IC50 (H9c2): > 79 µM (inactive)
- CC50 [26]: > 40 µM (active)
